Data: patent publication US10800772B2 (Gilead Sciences, Inc., priority 2016, dated 2020)

Experiments:
Assay type in all cases: cell-based, HIV-1
[1] = system: HIV-IIIb IN T174I DE; test: Antiviral assay in MT4 cells, HIV-IIIb IN T174I DE virus (from dose escalation passaging); conditions: Human immunodeficiency virus 1, IIIB, MT4, 120 h, read-out: T174I DE EC50, MT4 cells, HIV-IIIb IN T174I DE (dose escalation), 5 days, CellTiter-Glo
Procedure, shortened: (§1)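 Luminescence from CellTiter-Glo after a 5-day culture served as the measure of HIV-1 replication in MT4 cells. Cells were infected beforehand for 3 h with HIV-IIIb (0.004 m.o.i.) and exposed to ten 3-fold compound dilutions. EC50 corresponds to a 50% signal decrease.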

[2] = system: HIV-IIIb (wildtype); test: Antiviral assay in MT4 cells, HIV-IIIb wildtype; conditions: Human immunodeficiency virus 1, IIIB, MT4, 120 h, read-out: WT EC50
Procedure, shortened: as §1

[3] = system: HIV-IIIb IN T174I BT; test: Antiviral assay in MT4 cells, HIV-IIIb IN T174I BT virus (from viral breakthrough); conditions: Human immunodeficiency virus 1, IIIB, MT4, 120 h, read-out: T174I BT EC50, MT4 cells, HIV-IIIb IN T174I BT (viral breakthrough), 5 days, CellTiter-Glo
Procedure, shortened: as §1

Row | SMILES | EC50 [1] [nM] | EC50 [2] [nM] | EC50 [3] [nM]
1 | COC(=O)N(C)C1CN(c2nn(C)c3ccc(-c4nc5cc(C)c([C@H](OC(C)(C)C)C(=O)O)c(-c6ccc(Cl)cc6)c5s4)cc23)C1 [Compound 102, (S)-2-(tert-butoxy)-2-(7-(4-chlorophenyl)-2-(3-(3-((methoxycarbonyl)(methyl)amino)azetidin-1-yl)-1-methyl-1H-indazol-5-yl)-5-methylbenzo[d]thiazol-6-yl)acetic acid] | 1270 | 13 | 934
2 | Cc1cc2nc(-c3ccc4c(c3)c(N3CCN(C5COC5)CC3)nn4C)sc2c(-c2ccc(Cl)cc2)c1[C@H](OC(C)(C)C)C(=O)O [Compound 104, (S)-2-(tert-butoxy)-2-(7-(4-chlorophenyl)-5-methyl-2-(1-methyl-3-(4-(oxetan-3-yl)piperazin-1-yl)-1H-indazol-5-yl)benzo[d]thiazol-6-yl)acetic acid] | 904 | 11 | 491
3 | Cc1cc2nc(-c3cnc4c(c3)c(C3=CCN(C)CC3)cn4C)sc2c(-c2ccc(Cl)cc2)c1[C@H](OC(C)(C)C)C(=O)O [Compound 105, (S)-2-(tert-butoxy)-2-(7-(4-chlorophenyl)-5-methyl-2-(1-methyl-3-(1-methyl-1,2,3,6-tetrahydropyridin-4-yl)-1H-pyrrolo[2,3-b]pyridin-5-yl)benzo[d]thiazol-6-yl)acetic acid] | 2290 | 35 | 1460
4 | Cc1cc2nc(-c3cnc4c(c3)c(C3CCN(C)CC3)cn4C)sc2c(-c2ccc(Cl)cc2)c1[C@H](OC(C)(C)C)C(=O)O [Compound 106, (S)-2-(tert-butoxy)-2-(7-(4-chlorophenyl)-5-methyl-2-(1-methyl-3-(1-methylpiperidin-4-yl)-1H-pyrrolo[2,3-b]pyridin-5-yl)benzo[d]thiazol-6-yl)acetic acid] | 3080 | 29 | 864
5 | Cc1cc2nc(-c3cnc4c(c3)c(N3CCN(C)CC3)cn4C)sc2c(-c2ccc(Cl)cc2)c1[C@H](OC(C)(C)C)C(=O)O [Compound 107, (S)-2-(tert-butoxy)-2-(7-(4-chlorophenyl)-5-methyl-2-(1-methyl-3-(4-methylpiperazin-1-yl)-1H-pyrrolo[2,3-b]pyridin-5-yl)benzo[d]thiazol-6-yl)acetic acid] | 2360 | 23 | 1110
6 | Cc1cc2nc(-c3ccn4ncc(C5CCN(C6COC6)CC5)c4n3)sc2c(-c2ccc(Cl)cc2)c1[C@H](OC(C)(C)C)C(=O)O [Compound 109, (S)-2-(tert-butoxy)-2-(7-(4-chlorophenyl)-5-methyl-2-(3-(1-(oxetan-3-yl)piperidin-4-yl)pyrazolo[1,5-a]pyrimidin-5-yl)benzo[d]thiazol-6-yl)acetic acid] | 614 | 3 | 205
7 | COC(=O)N1CC(N2CCC(c3cnn4ccc(-c5nc6cc(C)c([C@H](OC(C)(C)C)C(=O)O)c(-c7ccc(Cl)cc7)c6s5)nc34)CC2)C1 [Compound 110, (S)-2-(tert-butoxy)-2-(7-(4-chlorophenyl)-2-(3-(1-(1-(methoxycarbonyl)azetidin-3-yl)piperidin-4-yl)pyrazolo[1,5-a]pyrimidin-5-yl)-5-methylbenzo[d]thiazol-6-yl)acetic acid] | 559 | 2 | 198
8 | Cc1cc2nc(-c3cnc4c(c3)c(N3CCN(C(C)C)CC3)nn4C)sc2c(-c2ccc(Cl)cc2)c1[C@H](OC(C)(C)C)C(=O)O [Compound 111, (S)-2-(tert-butoxy)-2-(7-(4-chlorophenyl)-2-(3-(4-isopropylpiperazin-1-yl)-1-methyl-1H-pyrazolo[3,4-b]pyridin-5-yl)-5-methylbenzo[d]thiazol-6-yl)acetic acid] | 2880 | 5 | 1150
9 | Cc1cc2nc(-c3cnc4c(c3)c(N3CCN(C5COC5)CC3)nn4C)sc2c(-c2ccc(Cl)cc2)c1[C@H](OC(C)(C)C)C(=O)O [Compound 112, (S)-2-(tert-butoxy)-2-(7-(4-chlorophenyl)-5-methyl-2-(1-methyl-3-(4-(oxetan-3-yl)piperazin-1-yl)-1H-pyrazolo[3,4-b]pyridin-5-yl)benzo[d]thiazol-6-yl)acetic Acid] | 2110 | 10 | 1250
10 | Cc1cc2nc(-c3cnc4c(c3)c(C3CCN(C5COC5)CC3)nn4C)sc2c(-c2ccc(Cl)cc2)c1[C@H](OC(C)(C)C)C(=O)O [Compound 113, (S)-2-(tert-butoxy)-2-(7-(4-chlorophenyl)-5-methyl-2-(1-methyl-3-(1-(oxetan-3-yl)piperidin-4-yl)-1H-pyrazolo[3,4-b]pyridin-5-yl)benzo[d]thiazol-6-yl)acetic acid] | 1520 | 5 | 871
11 | COC(=O)N1CC(N2CCC(c3nn(C)c4ncc(-c5nc6cc(C)c([C@H](OC(C)(C)C)C(=O)O)c(-c7ccc(Cl)cc7)c6s5)cc34)CC2)C1 [Compound 114, (S)-2-(tert-butoxy)-2-(7-(4-chlorophenyl)-2-(3-(1-(1-(methoxycarbonyl)azetidin-3-yl)piperidin-4-yl)-1-methyl-1H-pyrazolo[3,4-b]pyridin-5-yl)-5-methylbenzo[d]thiazol-6-yl)acetic acid] | 2200 | 12 | 1080
12 | CCOC(=O)N1CC(N2CCC(c3nn(C)c4ncc(-c5nc6cc(C)c([C@H](OC(C)(C)C)C(=O)O)c(-c7ccc(Cl)cc7)c6s5)cc34)CC2)C1 [Compound 115, (S)-2-(tert-butoxy)-2-(7-(4-chlorophenyl)-2-(3-(1-(1-(ethoxycarbonyl)azetidin-3-yl)piperidin-4-yl)-1-methyl-1H-pyrazolo[3,4-b]pyridin-5-yl)-5-methylbenzo[d]thiazol-6-yl)acetic acid] | 2450 | 14 | 1600
13 | Cc1cc2nc(-c3cnc4c(c3)c(C3CCN(C5CN(C(=O)OC(C)(C)C)C5)CC3)nn4C)sc2c(-c2ccc(Cl)cc2)c1[C@H](OC(C)(C)C)C(=O)O [Compound 116, (S)-2-(tert-butoxy)-2-(2-(3-(1-(1-(tert-butoxycarbonyl)azetidin-3-yl)piperidin-4-yl)-1-methyl-1H-pyrazolo[3,4-b]pyridin-5-yl)-7-(4-chlorophenyl)-5-methylbenzo[d]thiazol-6-yl)acetic acid] | 5190 | 40 | 3810
14 | CC(=O)N1CC(N2CCC(c3nn(C)c4ncc(-c5nc6cc(C)c([C@H](OC(C)(C)C)C(=O)O)c(-c7ccc(Cl)cc7)c6s5)cc34)CC2)C1 [Compound 117, (S)-2-(2-(3-(1-(1-acetylazetidin-3-yl)piperidin-4-yl)-1-methyl-1H-pyrazolo[3,4-b]pyridin-5-yl)-7-(4-chlorophenyl)-5-methylbenzo[d]thiazol-6-yl)-2-(tert-butoxy)acetic acid] | 1690 | 27 | 1180
15 | Cc1cc2nc(-c3cnc4c(n3)c(C3CCN(C5COC5)CC3)nn4C)sc2c(-c2ccc(Cl)cc2)c1[C@H](OC(C)(C)C)C(=O)O [Compound 118, (S)-2-(tert-butoxy)-2-(7-(4-chlorophenyl)-5-methyl-2-(1-methyl-3-(1-(oxetan-3-yl)piperidin-4-yl)-1H-pyrazolo[3,4-b]pyrazin-5-yl)benzo[d]thiazol-6-yl)acetic acid] | 737 | 4 | 298
